Data: the NIST ThermoML archive (doi:10.1021/je700714m)

How the values were obtained:
[1] = xn = mol fraction of the nth substance listed; details: for mass density / speed of sound / viscosity: 100 kPa, Liquid
[2] = refractive index (Na D-line) (dimensionless); xn = mol fraction of the nth substance listed; details: 100 kPa, Liquid

COc1ccc(C=O)cc1 [4-methoxybenzaldehyde] + Clc1ccccc1
Details	mass density, [1] [kg/m3]	refractive index, [2]	speed of sound, [1] [m/s]	surface tension liquid-gas, [1] [mN/m]	viscosity, [1] [mPa·s]
303.15 K, x1 = 0.144	1105.1	1.5589	1339	43.12	0.8478
303.15 K, x1 = 0.2517	1107	1.5587	1383	50.12	1.023
303.15 K, x1 = 0.3354	1109.1	1.5586	1418	56	1.168
303.15 K, x1 = 0.4308	1111.2	1.5585	1459	62.5	1.334
303.15 K, x1 = 0.5457	1113.2	1.5583	1505	70.14	1.566
303.15 K, x1 = 0.6271	1115.3	1.5581	1537	75.82	1.771
303.15 K, x1 = 0.7371	1118	1.5578	1580	84.11	2.086
303.15 K, x1 = 0.8079	1122	1.5576	1607	87.59	2.353
303.15 K, x1 = 0.9439	1124	1.5572	1662	96.09	2.948
303.15 K, x1 = 1	1125.5	1.5571	1684	99.08	3.275
313.15 K, x1 = 0.144	1085.1	1.5508	820	41.6	0.7705
313.15 K, x1 = 0.2517	1089.3	1.5507	924	49.11	0.9236
313.15 K, x1 = 0.3354	1092.1	1.5506	1004	55.33	1.047
313.15 K, x1 = 0.4308	–	1.5504	1097	62.12	1.178
313.15 K, x1 = 0.5457	1100.5	1.5502	1207	71.23	1.357
313.15 K, x1 = 0.6271	1103.5	1.55	1283	78.22	1.497
313.15 K, x1 = 0.7371	1107.2	1.5497	1385	83.11	1.762
313.15 K, x1 = 0.8079	1110.2	1.5494	1452	86.41	1.986
313.15 K, x1 = 0.9439	1116.3	1.549	1577	94.66	2.596
313.15 K, x1 = 1	1119.1	1.5488	1631	96.11	2.97
323.15 K, x1 = 0.144	1073.5	1.548	738	40.52	0.6646
323.15 K, x1 = 0.2517	1078.6	1.5479	758	47.99	0.8222
323.15 K, x1 = 0.3354	1082.5	1.5478	850	53.34	0.9386
323.15 K, x1 = 0.4308	1086.3	1.5477	955	60.11	1.059
323.15 K, x1 = 0.5457	1091.6	1.5475	1082	68.77	1.192
323.15 K, x1 = 0.6271	1095	1.5475	1170	75.22	1.287
323.15 K, x1 = 0.7371	1100	1.5474	1290	82.89	1.474
323.15 K, x1 = 0.8079	1103	1.547	1365	85.22	1.635
323.15 K, x1 = 0.9439	1110.1	1.5466	1511	93.44	2.122
323.15 K, x1 = 1	1114.1	1.5463	1571	94.1	2.442
